The test system of one assay is γ-secretase. The assay is described as follows: Screening for γ-secretase-modulating activity, Aβ 42 in SKNBE2 cells carrying APP 695-wild type. It counts as cell-based. As to conditions: at 3 μM. As for the experimental part:
Screening of the Compounds of the Invention for γ-Secretase-Modulating Activity
Screening was carried out using SKNBE2 cells carrying the APP 695-wild type, grown in DMEM/NUT-mix F12 (HAM) provided by Gibco (cat no. 31330-38) containing 5% Serum/Fe supplemented with 1% non-essential amino acids.
Cells were grown to near confluency.
The screening was performed using the assay as described in Citron et al (1997) Nature Medicine 3: 67.
IC50-Values of Selected Compounds of the Invention on the γ-Secretase Activity.
Take `CC(C)CC(C(=O)O)c1cc(Nc2cc(C(F)(F)F)cc(C(F)(F)F)c2)cc(-c2cc(C(F)(F)F)cc(C(F)(F)F)c2)c1` (stereo not shown) [Compound 43, 2-[5-(3,5-Bis-trifluoromethyl-phenylamino)-3′,5′-bis-trifluoromethyl-biphenyl-3-yl]-4-methyl-pentanoic acid]: the “WTAPP SKNBE2 Aβ 42 % Inhibition at 3 μM” value stood at 89%.

In the case of `CC(C)CC(C(=O)O)c1cc(Nc2ccc(F)cc2)cc(-c2ccc(C(F)(F)F)cc2)c1` (stereo not shown) [Compound 6, 2-[5-(4-Fluoro-phenylamino)-4′-trifluoromethyl-biphenyl-3-yl]-4-methyl-pentanoic acid], the “WTAPP SKNBE2 Aβ 42 % Inhibition at 3 μM” value turned out to be 66%.

`CC(C)CC(C)(C(=O)O)c1cc(Nc2ccc(C#N)cc2)cc(-c2ccc(C(F)(F)F)cc2)c1` (stereo not shown) [Compound 14, 2-[5-(4-Cyano-phenylamino)-4′-trifluoromethyl-biphenyl-3-yl]-2,4-dimethyl-pentanoic acid]: the “WTAPP SKNBE2 Aβ 42 % Inhibition at 3 μM” value is 17%.

As for `COc1cc(Oc2cc(-c3ccc(C(F)(F)F)cc3)cc(C(CC(C)C)C(=O)O)c2)ccc1F` (stereo not shown) [Compound 18, 2-[5-(4-Fluoro-3-methoxy-phenoxy)-4′-trifluoromethyl-biphenyl-3-yl]-4-methyl-pentanoic acid], the “WTAPP SKNBE2 Aβ 42 % Inhibition at 3 μM” value came to 19%.

As for `CC(C)CC(C(=O)O)c1cc(Nc2cc(F)cc(F)c2)cc(-c2ccc(C(F)(F)F)cc2)c1` (stereo not shown) [Compound 1, 2-[5-(3,5-Difluoro-phenylamino)-4′-trifluoromethyl-biphenyl-3-yl]-4-methyl-pentanoic acid], the “WTAPP SKNBE2 Aβ 42 % Inhibition at 3 μM” value was found to be 73%.

On to `CC(C)CC(C(=O)O)c1cc(Oc2cccc(C(C)C)c2)cc(-c2ccc(C(F)(F)F)cc2)c1` (stereo not shown) [Compound 15, 2-[5-(3-Isopropyl-phenoxy)-4′-trifluoromethyl-biphenyl-3-yl]-4-methyl-pentanoic acid], for which the “WTAPP SKNBE2 Aβ 42 % Inhibition at 3 μM” value was 65%.

As to `CC(C)CC(C(=O)O)c1cc(Oc2cc(F)cc(F)c2)cc(-c2cc(F)cc(C(F)(F)F)c2)c1` (stereo not shown) [Compound 33, 2-[5-(3,5-Difluoro-phenoxy)-3′-fluoro-5′-trifluoromethyl-biphenyl-3-yl]-4-methyl-pentanoic acid], the “WTAPP SKNBE2 Aβ 42 % Inhibition at 3 μM” value was determined as 59%.

Consider `CC(C)CC(C(=O)O)c1cc(Oc2ccccc2)cc(-c2ccc(C(F)(F)F)cc2)c1` (stereo not shown) [Compound 24, 4-Methyl-2-(5-phenoxy-4′-trifluoromethyl-biphenyl-3-yl)-pentanoic acid], for which the “WTAPP SKNBE2 Aβ 42 % Inhibition at 3 μM” value worked out at 45%.

In the case of `CC(C)CC(C(=O)O)c1cc(Oc2cccc(C(F)(F)F)c2)cc(-c2cc(C(F)(F)F)cc(C(F)(F)F)c2)c1` (stereo not shown) [Compound 35, 2-[3′,5′-Bis-trifluoromethyl-5-(3-trifluoromethyl-phenoxy)-biphenyl-3-yl]-4-methyl-pentanoic acid], the “WTAPP SKNBE2 Aβ 42 % Inhibition at 3 μM” value came out at 90%.

Turning to `CC(C)CC(C(=O)O)c1cc(Oc2cc(F)cc(C(F)(F)F)c2)cc(-c2cc(F)cc(C(F)(F)F)c2)c1` (stereo not shown) [Compound 32, 2-[3′-Fluoro-5-(3-fluoro-5-trifluoromethyl-phenoxy)-5′-trifluoromethyl-biphenyl-3-yl]-4-methyl-pentanoic acid], the “WTAPP SKNBE2 Aβ 42 % Inhibition at 3 μM” value came to 87%.

On to `CC(C)CC(C(=O)O)c1cc(Oc2cccc(C(F)(F)F)c2)cc(-c2cc(F)cc(C(F)(F)F)c2)c1` (stereo not shown) [Compound 31, 2-[3′-Fluoro-5′-trifluoromethyl-5-(3-trifluoromethyl-phenoxy)-biphenyl-3-yl]-4-methyl-pentanoic acid], for which the “WTAPP SKNBE2 Aβ 42 % Inhibition at 3 μM” value came to 84%.

For `CC(C)CC(C(=O)O)c1cc(Nc2ccc(Cl)c(C(F)(F)F)c2)cc(-c2ccc(C(F)(F)F)cc2)c1` (stereo not shown) [Compound 12, 2-[5-(4-Chloro-3-trifluoromethyl-phenylamino)-4′-trifluoromethyl-biphenyl-3-yl]-4-methyl-pentanoic acid], the “WTAPP SKNBE2 Aβ 42 % Inhibition at 3 μM” value was 81%.

Consider `CC(C)CC(C(=O)O)c1cc(Nc2ccc(F)cc2C(F)(F)F)cc(-c2cc(C(F)(F)F)cc(C(F)(F)F)c2)c1` (stereo not shown) [Compound 45, 2-[5-(4-Fluoro-2-trifluoromethyl-phenylamino)-3′,5′-bis-trifluoromethyl-biphenyl-3-yl]-4-methyl-pentanoic acid], for which the “WTAPP SKNBE2 Aβ 42 % Inhibition at 3 μM” value amounted to 85%.

Turning to `CC(C)CC(C(=O)O)c1cc(Oc2ccc(Cl)cc2)cc(-c2ccc(C(F)(F)F)cc2)c1` (stereo not shown) [Compound 29, 2-[5-(4-Chloro-phenoxy)-4′-trifluoromethyl-biphenyl-3-yl]-4-methyl-pentanoic acid], the “WTAPP SKNBE2 Aβ 42 % Inhibition at 3 μM” value is 62%.

For the molecule `CC(C)CC(C(=O)O)c1cc(Oc2ccc(F)cc2)cc(-c2ccc(C(F)(F)F)cc2)c1` (stereo not shown) [Compound 25, 2-[5-(4-Fluoro-phenoxy)-4′-trifluoromethyl-biphenyl-3-yl]-4-methyl-pentanoic acid], the “WTAPP SKNBE2 Aβ 42 % Inhibition at 3 μM” value worked out at 54%.

Take `CC(C)CC(C(=O)O)c1cc(Nc2ccc(F)cc2C(F)(F)F)cc(-c2cc(F)cc(C(F)(F)F)c2)c1` (stereo not shown) [Compound 41, 2-[5′-Fluoro-5-(4-fluoro-2-trifluoromethyl-phenylamino)-3′-trifluoromethyl-biphenyl-3-yl]-4-methyl-pentanoic acid]: the “WTAPP SKNBE2 Aβ 42 % Inhibition at 3 μM” value is given as 67%.

Take `COc1ccc(Oc2cc(-c3ccc(C(F)(F)F)cc3)cc(C(CC(C)C)C(=O)O)c2)cc1` (stereo not shown) [Compound 28, 2-[5-(4-Methoxy-phenoxy)-4′-trifluoromethyl-biphenyl-3-yl]-4-methyl-pentanoic acid]: the “WTAPP SKNBE2 Aβ 42 % Inhibition at 3 μM” value is listed as −3%.

Turning to `CC(C)CC(C(=O)O)c1cc(Nc2cc(C(F)(F)F)ccc2C(F)(F)F)cc(-c2ccc(Cl)c(C(F)(F)F)c2)c1` (stereo not shown) [Compound 39, 2-[4′-Chloro-5-(2,5-bis-trifluoromethyl-phenylamino)-3′-trifluoromethyl-biphenyl-3-yl]-4-methyl-pentanoic acid], the “WTAPP SKNBE2 Aβ 42 % Inhibition at 3 μM” value was determined as 95%.

Take `CC(C)CC(C(=O)O)c1cc(Nc2ccc(Cl)cc2)cc(-c2ccc(C(F)(F)F)cc2)c1` (stereo not shown) [Compound 5, 2-[5-(4-Chloro-phenylamino)-4′-trifluoromethyl-biphenyl-3-yl]-4-methyl-pentanoic acid]: the “WTAPP SKNBE2 Aβ 42 % Inhibition at 3 μM” value was found to be 79%.

Take `CC(C)CC(C(=O)O)c1cc(Oc2cccc(C(F)(F)F)c2)cc(-c2ccc(Cl)c(C(F)(F)F)c2)c1` (stereo not shown) [Compound 22, 4-Methyl-2-[4′-chloro-3′-trifluoromethyl-5-(3-trifluoromethylphenoxy)-biphenyl-3-yl]-pentanoic acid]: the “WTAPP SKNBE2 Aβ 42 % Inhibition at 3 μM” value amounted to 81%.

The same assay, now with this note: read-out: WTAPP SKNBE2 Aβ 42 EC50.
As a reminder, the EC50 is the midpoint of the concentration-response curve. Regarding `CC(C)CC(C(=O)O)c1cc(Nc2cc(C(F)(F)F)ccc2C(F)(F)F)cc(-c2cc(C(F)(F)F)cc(C(F)(F)F)c2)c1` (stereo not shown) [Compound 44, 2-[5-(2,5-Bis-trifluoromethyl-phenylamino)-3′,5′-bis-trifluoromethyl-biphenyl-3-yl]4-methyl-pentanoic acid], the 50% effective concentration (EC50) came out at 240 nM.

For the molecule `CC(C)CC(C(=O)O)c1cc(Nc2cc(F)cc(C(F)(F)F)c2)cc(-c2ccc(Cl)c(C(F)(F)F)c2)c1` (stereo not shown) [Compound 38, 2-[4′-Chloro-5-(3-fluoro-5-trifluoromethyl-phenylamino)-3′-trifluoromethyl-biphenyl-3-yl]-4-methyl-pentanoic acid], the EC50 turned out to be 110 nM.

`CC(C)CC(C(=O)O)c1cc(Nc2ccc(C(F)(F)F)cc2)cc(-c2ccc(C(F)(F)F)cc2)c1` (stereo not shown) [Compound 11, 4-Methyl-2-[4′-trifluoromethyl-5-(4-trifluoromethyl-phenylamino)-biphenyl-3-yl]-pentanoic acid]: the EC50 came out at 500 nM.

For `CC(C)CC(C(=O)O)c1cc(Nc2cccc(C(F)(F)F)c2)cc(-c2ccc(C(F)(F)F)cc2)c1` (stereo not shown) [Compound 10, 4-Methyl-2-[4′-trifluoromethyl-5-(3-trifluoromethyl-phenylamino)-biphenyl-3-yl]-pentanoic acid], the EC50 is 410 nM.

Turning to `CC(C)CC(C(=O)O)c1cc(Oc2cccc(C(F)(F)F)c2)cc(-c2ccc(C(F)(F)F)cc2)c1` (stereo not shown) [Compound 20, 2 4-Methyl-2-[4′-trifluoromethyl-5-(3-trifluoromethyl-phenoxy)-biphenyl-3-yl]-pentanoic acid], the half-maximal effective concentration (EC50) was determined as 660 nM.

Take `CC(C)CC(C(=O)O)c1cc(Oc2cc(F)cc(F)c2)cc(-c2ccc(C(F)(F)F)cc2)c1` (stereo not shown) [Compound 27, 2-[5-(3,5-Difluoro-phenoxy)-4′-trifluoromethyl-biphenyl-3-yl]-4-methyl-pentanoicacid]: the EC50 is 770 nM.

Consider `CC(C)CC(C(=O)O)c1cc(Nc2cc(C(F)(F)F)ccc2C(F)(F)F)cc(-c2cc(F)cc(C(F)(F)F)c2)c1` (stereo not shown) [Compound 40, 2-[5′-Fluoro-5-(2,5-bis-trifluoromethyl-phenylamino)-3′-trifluoromethyl-biphenyl-3-yl]-4-methyl-pentanoic acid], for which the EC50 came out at 330 nM.

With `CC(C)CC(C(=O)O)c1cc(Nc2ccc(C(C)C)cc2)cc(-c2ccc(C(F)(F)F)cc2)c1` (stereo not shown) [Compound 4, 2-[5-(4-Isopropyl-phenylamino)-4′-trifluoromethyl-biphenyl-3-yl]-4-methyl-pentanoic acid], the EC50 stood at 290 nM.

As to `CC(C)CC(C(=O)O)c1cc(Oc2ccc(C(F)(F)F)cc2)cc(-c2ccc(C(F)(F)F)cc2)c1` (stereo not shown) [Compound 16, 4-Methyl-2-[4′-trifluoromethyl-5-(4-trifluoromethyl-phenoxy)-biphenyl-3-yl]-pentanoic acid], the EC50 was found to be 2250 nM.

On to `CC(C)CC(C(=O)O)c1cc(Nc2cc(C(F)(F)F)cc(C(F)(F)F)c2)cc(-c2ccc(Cl)c(C(F)(F)F)c2)c1` (stereo not shown) [Compound 37, 2-[5-(3,5-Bis-trifluoromethyl-phenylamino)-4′-chloro-3′-trifluoromethyl-biphenyl-3-yl]-4-methyl-pentanoic acid], for which the concentration giving a half-maximal response (EC50) was 460 nM.

In the case of `CC(C)CC(C(=O)O)c1cc(Nc2cc(C(F)(F)F)cc(C(F)(F)F)c2)cc(-c2ccc(C(F)(F)F)cc2)c1` (stereo not shown) [Compound 3, 2-[5-(3,5-Bis-trifluoromethyl-phenylamino)-4′-trifluoromethyl-biphenyl-3-yl]-4-methyl-pentanoic acid], the EC50 worked out at 300 nM.

For the origin of these results see US7557244B2, “Substituted biphenyl carboxylic acids and derivatives thereof” (Ortho-McNeil Pharmaceutical, Inc., priority 2006, dated 2009).
